How the values were obtained:
[1] = system: pathogenic bacteria causing bacterial angular leaf spot in cucumbers; test: In vitro bactericidal activity, bacterial angular leaf spot in cucumbers; format: cell-based, pseudomonas; settings: read-out: inhibitory rate; for inhibition at 1 ppm: dosage 1 ppm; for inhibition at 5 ppm: dosage 5 ppm
[2] = system: pathogenic bacteria causing bacterial wilt in tobacco; test: whole plant or invertebrate; format: cell-based, ralstonia; settings: read-out: inhibitory rate
[3] = system: pathogenic bacteria causing black shank in potatoes; test: In vitro bactericidal activity, black shank in potatoes; format: cell-based; settings: read-out: inhibitory rate; for inhibition at 1 ppm: dosage 1 ppm; for inhibition at 5 ppm: dosage 5 ppm
[4] = system: pathogenic bacteria causing stem rot in sweet potatoes; test: In vitro bactericidal activity, stem rot in sweet potatoes; format: cell-based, dikia; settings: read-out: inhibitory rate; for inhibition at 1 ppm: dosage 1 ppm; for inhibition at 5 ppm: dosage 5 ppm
[5] = system: pathogenic bacteria causing bacterial blight in rice; test: whole plant or invertebrate; format: cell-based, xanthomonas; settings: read-out: inhibitory rate
[6] = system: pathogenic bacteria causing fruit blotch in watermelons; test: In vitro bactericidal activity, fruit blotch in watermelons; format: cell-based, acidovorax; settings: read-out: inhibitory rate; for inhibition at 1 ppm: dosage 1 ppm; for inhibition at 5 ppm: dosage 5 ppm
[7] = system: pathogenic bacteria causing black rot in Chinese cabbages; test: In vitro bactericidal activity, black rot in Chinese cabbages; format: cell-based, xanthomonas; settings: Xanthomonas, read-out: inhibitory rate; for inhibition at 1 ppm: dosage 1 ppm; for inhibition at 5 ppm: dosage 5 ppm
[8] = system: pathogenic bacteria causing bacterial wilt in cassava; test: organism not typed; format: cell-based; settings: read-out: inhibitory rate
[9] = system: pathogenic bacteria causing fire blight in pears; test: In vitro bactericidal activity, fire blight in pears; format: cell-based, erwinia; settings: Erwinia, read-out: inhibitory rate; for inhibition at 1 ppm: dosage 1 ppm; for inhibition at 5 ppm: dosage 5 ppm
black shank in potatoes = test: Living crops in vivo protective activity, potatoes (root irrigation); settings: Solanum tuberosum, read-out: efficacy against black shank in potatoes; for pest or weed control at 5 ppm: dosage 5 ppm; for pest or weed control at 10 ppm: dosage 10 ppm
Procedure: Root irrigation was carried out on the potatoes for tests according to the designed concentration of the agents. The dosage for each plant was 200 mL and was kept consistent (also for the control). The black shank bacteria were inoculated on the second day after the application. The results were investigated according to the disease condition.

[10] = system: indoor potted cucumber seedlings; test: Effect of improving growth and development of crops; format: in vivo; parameters: Rate of growth rate increase (%): concentration or dose not given beside the values; settings: versus blank control; for Rate of chlorophyll content increase (%) / Rate of leaf area increase (%): 14 days after application; for Rate of growth rate increase (%): plant height 14 days after application; for Rate of leaf area increase (%): second leaf
In short: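 Before treatment, plant height and the second leaf's length and width are recorded. After 14 days these are repeated, chlorophyll is read by meter, and percentage increases in growth rate, leaf area and chlorophyll are computed.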

cucumber seedlings = test: Safety for plant growth after application; format: in vivo; settings: dosage 200 ppm
In short: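 Potted cucumber seedlings grown indoors; read-outs: plant-height growth rate, chlorophyll content, leaf area.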

[11] = system: bacterial wilt in tobacco; test: whole plant or invertebrate; settings: Nicotiana tabacum, read-out: efficacy against bacterial wilt in tobacco
[12] = system: stem rot in sweet potatoes; test: whole plant or invertebrate; settings: read-out: efficacy against stem rot in sweet potatoes
bacterial blight in rice = test: whole plant or invertebrate; settings: Oryza sativa, read-out: efficacy against bacterial blight in rice
[13] = system: fruit blotch in watermelons; test: whole plant or invertebrate; settings: read-out: efficacy against fruit blotch in watermelons
[14] = system: soft rot in Chinese cabbages; test: whole plant or invertebrate; settings: 48 h, read-out: efficacy against soft rot in Chinese cabbages

Compound	inhibition at 1 ppm [1] [%]	inhibition at 5 ppm [1] [%]	inhibition at 1 ppm [2] [%]	inhibition at 5 ppm [2] [%]	inhibition at 1 ppm [3] [%]	inhibition at 5 ppm [3] [%]	inhibition at 1 ppm [4] [%]	inhibition at 5 ppm [4] [%]	inhibition at 1 ppm [5] [%]	inhibition at 5 ppm [5] [%]	inhibition at 1 ppm [6] [%]	inhibition at 5 ppm [6] [%]	inhibition at 1 ppm [7] [%]	inhibition at 5 ppm [7] [%]	inhibition at 1 ppm [8] [%]	inhibition at 5 ppm [8] [%]	inhibition at 1 ppm [9] [%]	inhibition at 5 ppm [9] [%]	pest or weed control at 5 ppm (black shank in potatoes) [%]	pest or weed control at 10 ppm (black shank in potatoes) [%]	further results
COCCCOC(=O)c1cn(C2CC2)c2cc(Cl)c(F)cc2c1=O [Compound 165, 3-methoxypropyl 7-chloro-1-cyclopropyl-6-fluoro-4-oxo-1,4-dihydroquinoline-3-carboxylate]	≥ 90	≥ 90	≥ 90	≥ 90	≥ 90	≥ 90	≥ 90	≥ 90	≥ 90	≥ 90	≥ 90	≥ 90	≥ 90	≥ 90	≥ 90	≥ 90	≥ 90	≥ 90	≥ 90	≥ 90	Rate of chlorophyll content increase (%) [10]: 16%; Rate of growth rate increase (%) [10]: 12%; Rate of leaf area increase (%) [10]: 17%; safety for plant growth (discoloration, necrosis, wilt, malformation) (cucumber seedlings): safe for plant growth; pest or weed control at 5 ppm [11]: ≥ 90%; pest or weed control at 10 ppm [11]: ≥ 90%; pest or weed control at 5 ppm [12]: ≥ 90%; pest or weed control at 10 ppm [12]: ≥ 90%; pest or weed control at 5 ppm (bacterial blight in rice): ≥ 90%; pest or weed control at 10 ppm (bacterial blight in rice): ≥ 90%; pest or weed control at 5 ppm [13]: ≥ 90%; pest or weed control at 10 ppm [13]: ≥ 90%; pest or weed control at 5 ppm [14]: ≥ 90%; pest or weed control at 10 ppm [14]: ≥ 90%
COCCOC(=O)c1cn(C2CC2)c2ccc(F)cc2c1=O [Compound 10, 2-methoxyethyl 1-cyclopropyl-6-fluoro-4-oxo-1,4-dihydroquinoline-3-carboxylate]	≥ 90	≥ 90	≥ 80	≥ 90	≥ 80	≥ 90	≥ 90	≥ 90	≥ 80	≥ 90	≥ 90	≥ 90	≥ 90	≥ 90	≥ 90	≥ 90	≥ 90	≥ 90	≥ 80	≥ 90	Rate of chlorophyll content increase (%) [10]: 13%; Rate of growth rate increase (%) [10]: 9%; Rate of leaf area increase (%) [10]: 10%; safety for plant growth (discoloration, necrosis, wilt, malformation) (cucumber seedlings): safe for plant growth; pest or weed control at 5 ppm [11]: ≥ 90%; pest or weed control at 10 ppm [11]: ≥ 90%; pest or weed control at 5 ppm [12]: ≥ 90%; pest or weed control at 10 ppm [12]: ≥ 90%; pest or weed control at 5 ppm (bacterial blight in rice): ≥ 80%; pest or weed control at 10 ppm (bacterial blight in rice): ≥ 90%; pest or weed control at 5 ppm [13]: ≥ 90%; pest or weed control at 10 ppm [13]: ≥ 90%; pest or weed control at 5 ppm [14]: ≥ 80%; pest or weed control at 10 ppm [14]: ≥ 90%
CCOc1ccc2c(=O)c(C(=O)OCCOC)cn(C3CC3)c2c1 [Compound 342]	≥ 90	≥ 90	≥ 90	≥ 90	≥ 90	≥ 90	≥ 90	≥ 90	≥ 90	≥ 90	≥ 90	≥ 90	≥ 90	≥ 90	≥ 90	≥ 90	≥ 90	≥ 90	≥ 90	≥ 90	Rate of chlorophyll content increase (%) [10]: 9%; Rate of growth rate increase (%) [10]: 9%; Rate of leaf area increase (%) [10]: 11%; safety for plant growth (discoloration, necrosis, wilt, malformation) (cucumber seedlings): safe for plant growth; pest or weed control at 5 ppm [11]: ≥ 90%; pest or weed control at 10 ppm [11]: ≥ 90%; pest or weed control at 5 ppm [12]: ≥ 90%; pest or weed control at 10 ppm [12]: ≥ 90%; pest or weed control at 5 ppm (bacterial blight in rice): ≥ 90%; pest or weed control at 10 ppm (bacterial blight in rice): ≥ 90%; pest or weed control at 5 ppm [13]: ≥ 90%; pest or weed control at 10 ppm [13]: ≥ 90%; pest or weed control at 5 ppm [14]: ≥ 90%; pest or weed control at 10 ppm [14]: ≥ 90%
CCN(CC)c1cc2c(cc1F)c(=O)c(C(=O)OCCO)cn2C1CC1 [Compound 419]	≥ 90	≥ 90	≥ 90	≥ 90	≥ 90	≥ 90	≥ 90	≥ 90	≥ 90	≥ 90	≥ 90	≥ 90	≥ 90	≥ 90	≥ 90	≥ 90	≥ 90	≥ 90	≥ 90	≥ 90	Rate of chlorophyll content increase (%) [10]: 15%; Rate of growth rate increase (%) [10]: 11%; Rate of leaf area increase (%) [10]: 17%; safety for plant growth (discoloration, necrosis, wilt, malformation) (cucumber seedlings): safe for plant growth; pest or weed control at 5 ppm [11]: ≥ 90%; pest or weed control at 10 ppm [11]: ≥ 90%; pest or weed control at 5 ppm [12]: ≥ 90%; pest or weed control at 10 ppm [12]: ≥ 90%; pest or weed control at 5 ppm (bacterial blight in rice): ≥ 90%; pest or weed control at 10 ppm (bacterial blight in rice): ≥ 90%; pest or weed control at 5 ppm [13]: ≥ 90%; pest or weed control at 10 ppm [13]: ≥ 90%; pest or weed control at 5 ppm [14]: ≥ 90%; pest or weed control at 10 ppm [14]: ≥ 90%
CCN(CC)c1cc2c(cc1F)c(=O)c(C(=O)OCCOC)cn2C1CC1 [Compound 420, 2-methoxyethyl 1-cyclopropyl-7-(diethylamino)-6-fluoro-4-oxo-1,4-dihydroquinoline-3-carboxylate]	≥ 90	≥ 90	≥ 90	≥ 90	≥ 90	≥ 90	≥ 90	≥ 90	≥ 90	≥ 90	≥ 90	≥ 90	≥ 90	≥ 90	≥ 90	≥ 90	≥ 90	≥ 90	≥ 90	≥ 90	Rate of chlorophyll content increase (%) [10]: 9%; Rate of growth rate increase (%) [10]: 9%; Rate of leaf area increase (%) [10]: 12%; safety for plant growth (discoloration, necrosis, wilt, malformation) (cucumber seedlings): safe for plant growth; pest or weed control at 5 ppm [11]: ≥ 90%; pest or weed control at 10 ppm [11]: ≥ 90%; pest or weed control at 5 ppm [12]: ≥ 90%; pest or weed control at 10 ppm [12]: ≥ 90%; pest or weed control at 5 ppm (bacterial blight in rice): ≥ 90%; pest or weed control at 10 ppm (bacterial blight in rice): ≥ 90%; pest or weed control at 5 ppm [13]: ≥ 90%; pest or weed control at 10 ppm [13]: ≥ 90%; pest or weed control at 5 ppm [14]: ≥ 90%; pest or weed control at 10 ppm [14]: ≥ 90%
CCOc1cc2c(cc1F)c(=O)c(C(=O)OCCCO)cn2C1CC1 [Compound 309]	≥ 90	≥ 90	≥ 90	≥ 90	≥ 90	≥ 90	≥ 90	≥ 90	≥ 90	≥ 90	≥ 90	≥ 90	≥ 90	≥ 90	≥ 90	≥ 90	≥ 90	≥ 90	≥ 90	≥ 90	Rate of chlorophyll content increase (%) [10]: 16%; Rate of growth rate increase (%) [10]: 12%; Rate of leaf area increase (%) [10]: 15%; safety for plant growth (discoloration, necrosis, wilt, malformation) (cucumber seedlings): safe for plant growth; pest or weed control at 5 ppm [11]: ≥ 90%; pest or weed control at 10 ppm [11]: ≥ 90%; pest or weed control at 5 ppm [12]: ≥ 90%; pest or weed control at 10 ppm [12]: ≥ 90%; pest or weed control at 5 ppm (bacterial blight in rice): ≥ 90%; pest or weed control at 10 ppm (bacterial blight in rice): ≥ 90%; pest or weed control at 5 ppm [13]: ≥ 90%; pest or weed control at 10 ppm [13]: ≥ 90%; pest or weed control at 5 ppm [14]: ≥ 90%; pest or weed control at 10 ppm [14]: ≥ 90%

Reference: US20250313533A1, “QUINOLINE CARBOXYLIC ACID ESTER COMPOUND AND PREPARATION METHOD AND USE THEREOF” (priority 2019, published 2025)
